Read-outs that look alike come from different tables or passages of the source.
Tests used:
Tetranychus urticae = test: Tetranychus test (OP-resistant/dip treatment); type: in vivo; details: 100 ppm active compound, bean plants dipped, OP-resistant
Description: [table] To produce a suitable preparation of active compound, 1 part by weight of active compound is mixed with the stated amounts of solvent and emulsifier, and the concentrate is diluted with emulsifier-containing water to the desired concentration. Bean plants (Phaseolus vulgaris) which are heavily infested by all stages of the greenhouse […] spider mite (Tetranychus urticae) are dipped into a preparation of active compound of the desired concentration. After the desired period of time, the activity in % is determined. 100% means that all spider mites have been killed; 0% means that none of the spider mites have been killed.

log P determination = type: physicochemical
Phaedon cochleariae = test: Phaedon larvae test; type: in vivo; details: 500 ppm active compound, cabbage leaves dipped
Description: (§1) [table] To produce a suitable preparation of active compound, 1 part by weight of active compound is mixed with the stated amounts of solvent and emulsifier, and the concentrate is diluted with emulsifier-containing water to the desired concentration. Cabbage leaves (Brassica oleracea) are treated by being dipped into the preparation of active compound of the desired concentration and are populated with larvae of the mustard beetle (Phaedon cochleariae) while leaves are still moist. After the desired period of time, the kill in % is determined. 100% means that all beetle larvae have been killed; 0% means that none of the beetle larvae have been killed.

Sinapis [1] = test: Post-emergence test, Sinapis; type: in vivo; details: post-emergence/greenhouse; 250 g of ai/ha; after three weeks
Description: (§2) [table] To produce a suitable preparation of active compound, 1 part by weight of active compound is mixed with the stated amount of solvent, the stated amount of emulsifier is added and the concentrate is diluted with water to the desired concentration. Test plants of a height of 5-15 cm are sprayed with the preparation of active compound such that the particular amounts of active compound desired are applied per unit area. The concentration of the spray liquor is chosen such that the particular amounts of active compound desired are applied in 1000 l of water/ha. After three weeks, the degree of damage to the plants is rated in % damage in comparison to the development of the untreated control. The figures denote: • 0%=no effect (=like untreated control) • 100%=total destruction

Avena fatua [2] = test: Pre-emergence test, Avena fatua; type: in vivo; details: pre-emergence/greenhouse; 250 g of ai/ha; after three weeks
Description: (§3) [table] To produce a suitable preparation of active compound, 1 part by weight of active compound is mixed with the stated amount of solvent, the stated amount of emulsifier is added and the concentrate is diluted with water to the desired concentration. Seeds of the test plants are sown in normal soil. After about 24 hours, the soil is sprayed with the preparation of active compound such that the particular amounts of active compound desired are applied per unit area. The concentration of the spray liquor is chosen such that the particular amounts of active compound desired are applied in 1000 l of water/ha. After three weeks, the degree of damage to the plants is rated in % damage in comparison to the development of the untreated control. The figures denote: • 0%=no effect (like untreated control) • 100%=total destruction

Myzus persicae [3] = test: Myzus test (leaf dip, cabbage); type: in vivo; details: 500 ppm active compound, cabbage leaves dipped
Description: as §1, with “oleracea) which are heavily infested by peach aphids (Myzus persicae)” for “oleracea)”, “concentration.” for “concentration and are populated with larvae of the mustard beetle (Phaedon cochleariae) while leaves are still moist.”, “aphids” for “beetle larvae”

Alopecurus [4] = test: Pre-emergence test, Alopecurus; type: in vivo; details: pre-emergence/greenhouse; 250 g of ai/ha; after three weeks
Description: as §3

Sugar beet = test: Pre-emergence test, Sugar beet; type: in vivo; details: pre-emergence/greenhouse; 250 g of ai/ha; after three weeks; crop
Description: as §3

Avena fatua [5] = test: Post-emergence test, Avena fatua; type: in vivo; details: post-emergence/greenhouse; 250 g of ai/ha; after three weeks
Description: as §2

Alopecurus [6] = test: Post-emergence test, Alopecurus; type: in vivo; details: post-emergence/greenhouse; 250 g of ai/ha; after three weeks
Description: as §2

Setaria [7] = test: Pre-emergence test, Setaria; type: in vivo; details: pre-emergence/greenhouse; 250 g of ai/ha; after three weeks
Description: as §3

Echinochloa [8] = test: Post-emergence test, Echinochloa; type: in vivo; details: post-emergence/greenhouse; 250 g of ai/ha; after three weeks
Description: as §2

Setaria [9] = test: Post-emergence test, Setaria; type: in vivo; details: post-emergence/greenhouse; 250 g of ai/ha; after three weeks
Description: as §2

Echinochloa [10] = test: Pre-emergence test, Echinochloa; type: in vivo; details: pre-emergence/greenhouse; 250 g of ai/ha; after three weeks
Description: as §3

Meloidogyne incognita = test: Meloidogyne test (gall formation on lettuce roots); type: in vivo; details: 20 ppm active compound, nematicidal action by gall formation
Description: [table] To produce a suitable preparation of active compound, 1 part by weight of active compound is mixed with the stated amounts of solvent and emulsifier, and the concentrate is diluted with water to the desired concentration. Vessels are filled with sand, solution of active compound, Meloidogyne incognita egg/larvae suspension and lettuce seeds. The lettuce seeds germinate and the plants develop. On the roots, galls develop. After the desired period of time, the nematicidal action is determined in % by the formation of galls. 100% means that no galls have been found; 0% means that the number of galls on the treated plants corresponds to that of the untreated control.

Myzus persicae [11] = test: Test for persistency: Myzus persicae (root-systemic action); type: in vivo; details: 4 ppm in soil, broad beans
Description: [table] To produce a suitable preparation of active compound, 1 part by weight of active compound is mixed with the stated amounts of solvent and emulsifier, and the concentrate is diluted with water to the desired concentration. The preparation of active compound is mixed intimately with the soil. The stated concentration refers to the amount of active compound per volume unit of soil (mg/l). The treated soil is filled into pots, and into these pots is planted pre-germinated broad beans. In this way, the active compound can be taken up from the soil into the roots of the plants and be transported into the leaves. After the stated number of days, peach aphids (Myzus persicae) are, in infection chambers, placed on the leaves. After the desired period of time, the kill in % is determined. 100% means that all aphids have been killed; 0% means that none of the aphids have been killed.

Amaranthus [12] = test: Pre-emergence test, Amaranthus; type: in vivo; details: pre-emergence/greenhouse; 250 g of ai/ha; after three weeks
Description: as §3

Sinapis [13] = test: Pre-emergence test, Sinapis; type: in vivo; details: pre-emergence/greenhouse; 250 g of ai/ha; after three weeks
Description: as §3

Amaranthus [14] = test: Post-emergence test, Amaranthus; type: in vivo; details: post-emergence/greenhouse; 250 g of ai/ha; after three weeks
Description: as §2

[15] = pH 2.3, pH 2.3, read-out: logP (2.3)

Structure (SMILES) | Kill rate in % after 7d (Tetranychus urticae) [%] | Kill rate in % after 7d (Phaedon cochleariae) [%] | % damage, Sinapis (Sinapis [1]) [%] | % damage, Avena fatua (Avena fatua [2]) [%] | % damage, Alopecurus (Alopecurus [4]) [%] | % damage, Avena fatua (Avena fatua [5]) [%] | % damage, Alopecurus (Alopecurus [6]) [%] | % damage, Setaria (Setaria [7]) [%] | % damage, Echinochloa (Echinochloa [8]) [%] | % damage, Setaria (Setaria [9]) [%] | % damage, Echinochloa (Echinochloa [10]) [%] | other results
COC1CCC2(CC1)NC(=O)C(Cl)(c1ccc(C)cc1C(F)(F)F)C2=O (stereo not shown) [Ex. I-1-a-16] | 100 |  |  |  |  |  |  |  |  |  |  | 
COC1CCC2(CC1)OC(=O)C(c1cc(C)c(C)cc1C)([N+](=O)[O-])C2=O (stereo not shown) [I-2-a-2] |  |  |  |  |  |  |  |  |  |  |  | log P (log P determination; isomer mixture, two values): 4.42; logP (2.3) (log P determination; pH 2.3): 4.42; logP (log P determination; pH 2.3, isomer mixture, two values, read-out: log P): 4.17; logP (log P determination; [15]): 4.17
Cc1cc(Cl)cc(Br)c1C1(Cl)C(=O)NC2(CCCOC2)C1=O (stereo not shown) [Ex. I-1-b-9] |  | 100 |  |  |  |  |  |  |  |  |  | 
CCc1cc(Cl)cc(Cl)c1C1(Cl)C(=O)NC2(CCC(OC)CC2)C1=O (stereo not shown) [Ex. I-1-a-46] |  |  | 70 | 100 | 95 | 100 | 100 | 100 | 100 | 100 | 100 | Kill rate in % after 6d (Myzus persicae [3]): 98%; % damage, Sugar beet (Sugar beet): 0%
CCOC1CCC2(CC1)NC(=O)C(Cl)(c1cc(C)ccc1Br)C2=O (stereo not shown) [Ex. I-1-a-41] | 95 | 100 |  |  |  |  |  |  |  |  |  | 
CCc1cc(Cl)c(C2(Cl)C(=O)NC3(CCCOC3)C2=O)c(Br)c1 (stereo not shown) [Ex. I-1-b-5] | 90 |  |  |  |  |  |  |  |  |  |  | 
COC1CCC2(CC1)NC(=O)C(Cl)(c1c(Cl)cc(Cl)cc1Cl)C2=O (stereo not shown) [Ex. I-1-a-42] |  |  |  |  |  |  |  |  |  |  |  | Kill rate in % after 6d (Myzus persicae [3]): 95%; Kill rate in % after 14d (Meloidogyne incognita): 90%
COC1CCC2(CC1)OC(=O)C(Cl)(c1cc(C)c(C)cc1C)C2=O (stereo not shown) [Ex. I-2-a-1] |  |  |  |  |  |  |  |  |  |  |  | Kill rate in % after 7d (Myzus persicae [11]; infection after 7 d): 100%; Kill rate in % after 7d (Myzus persicae [11]; infection after 21 d): 95%; Kill rate in % after 7d (Myzus persicae [11]; infection after 35 d): 0%; logP (log P determination; pH 2.3, pH 2.3, read-out: log P (pH 2.3)): 4.07; logP (log P determination; [15]): 4.07
CCOC1CCC2(CC1)NC(=O)C(Cl)(c1c(C)cc(C)cc1C)C2=O (stereo not shown) [Ex. I-1-a-4] |  |  | 95 | 90 | 100 | 95 | 95 | 100 | 100 | 100 | 100 | % damage, Amaranthus (Amaranthus [12]): 100%; % damage, Sinapis (Sinapis [13]): 95%; % damage, Amaranthus (Amaranthus [14]): 90%
COC1CCC2(CC1)NC(=O)C(Cl)(c1c(Cl)cc(C)cc1Cl)C2=O (stereo not shown) [Ex. I-1-a-6] |  | 100 | 80 | 95 | 100 | 95 | 95 | 100 | 100 | 100 | 95 | % damage, Amaranthus (Amaranthus [12]): 100%; % damage, Sinapis (Sinapis [13]): 90%; % damage, Amaranthus (Amaranthus [14]): 90%
